These results are taken from US8951997B2, “Substituted isoquinoline derivative” (D. Western Therapeutics Institute, Inc., priority 2009, dated 2015).

In one assay the test system is NG108-15 cells. Briefly: Neurite outgrowth promoting effect. In kind it is cell-based. As to conditions: NG108-15 cells, 10, 3, 1, or 0.3 μmol/L, 24 hours, compared with cells cultured in the absence of the compound. The protocol:
To examine the usefulness of the compound of the present invention as a therapeutic agent for neurodegenerative diseases, NG108-15 cells frequently used as a model of neurons were cultured in the presence of the compound of the present invention, which was then evaluated for its neurite outgrowth promoting effect. Examples 15 and 49 were used as test compounds.
Each test compound was dissolved in dimethyl sulfoxide and diluted to prepare a test compound solution with a predetermined concentration.
The NG108-15 cells (obtained from ATCC) were cultured in a Dulbecco's modified eagle's medium containing 5% fetal bovine serum and 1×HAT (hypoxanthine, aminopterin, and thymidine). The cells were inoculated at 12,000 cells/well to a 24-well plate and statically cultured at 37° C. for 12 hours in an environment of 5% CO2 and 95% air. Then, each test compound was added at a final concentration of 10, 3, 1, or 0.3 μmol/L. 24 hours later, the degree of neurite outgrowth was observed under an inverted microscope.

The test system of assay [1] is rabbits (New Zealand White). Briefly: Ocular hypotensive effect in rabbits. To be noted: Oryctolagus cuniculus, topical, 0.04 mL dropped to one eye, vehicle to contralateral eye, test compound solution concentration 10 (W/V), read-out: Maximum ocular hypotensive rate. In kind it is in vivo, rabbit. As for the experimental part:
The compound of the present invention was administered to rabbits (New Zealand White, sex: male, 3 to 7 per group) and evaluated for its ocular hypotensive effect.
Each test compound was dissolved in a vehicle (1.04 g of sodium dihydrogen phosphate dihydrate and 0.5 g of sodium chloride dissolved in purified water and then adjusted to pH 7.0 with sodium hydroxide to make the total amount to 100 mL) to prepare a test compound solution with a concentration of 10 (W/V).
The intraocular pressures of the rabbits were measured using Tiolat TonoVet handheld tonometer immediately before administration of test compound. The test compound solution and the vehicle were dropped at a volume of 0.04 mL to one eye and the contralateral eye, respectively, and the intraocular pressures were measured over time in the same way as above. The rate of the intraocular pressure of the eye receiving the test compound solution to that of the eye receiving the vehicle was calculated as an ocular hypotensive rate.

A further assay relates to rats (SD). Briefly: Blood pressure lowering effect in rats. In kind it is in vivo, rat. To be noted: male, intraperitoneal, 10 mg/kg. As for the experimental part: The compound of the present invention was intraperitoneally administered to rats (SD, sex: male, 6 rats per group) and evaluated for its blood pressure lowering effect. Example 18 was used as a test compound.
The test compound was dissolved in saline and diluted to prepare a test compound solution with a predetermined concentration.
The test drug was intraperitoneally administered at a dose of 10 mg/kg to the rats (6 rats per group), and their blood pressures and pulse rates were measured over time using Softron Indirect Blood Pressure Meter BP-98A.

The subject of assay [2] is spontaneously hypertensive rats (SHR/Izm). Briefly: Blood pressure lowering effect in spontaneously hypertensive rats. Format: in vivo, rat. To be noted: male, intraperitoneal. As for the experimental part:
The compound of the present invention was intraperitoneally administered to spontaneously hypertensive rats (SHR/Izm, sex: male, 4 to 6 rats per group) and evaluated for its blood pressure lowering effect. Examples 32, 34, and 35 were used as test compounds.
Each test compound was dissolved in saline and diluted to prepare a test compound solution with a predetermined concentration.
The test drug was intraperitoneally administered at a dose of 10 mg/kg (except for 30 mg/kg for Example 34) to the animals (4 to 6 rats per group), and their blood pressures and pulse rates were measured over time using Softron Indirect Blood Pressure Meter BP-98A.

Assay [3] concerns rabbits (New Zealand White). Briefly: Ocular hypotensive effect in rabbits. In kind it is in vivo, rabbit. As to conditions: Oryctolagus cuniculus, topical, 0.04 mL dropped to one eye, vehicle to contralateral eye, test compound concentration of 2%, read-out: Maximum ocular hypotensive rate.

Molecules are shown by their SMILES. Structures can show the parent of a compound that is named as a salt.

In the case of `C[C@H]1CNCCCN1S(=O)(=O)c1ccc2cnccc2c1Br` [Example 15, (S)-5-bromo-6-(2-methyl-1,4-diazepan-1-ylsulfonyl)isoquinoline dihydrochloride], the “degree of neurite outgrowth” value in the assay with NG108-15 cells is “remarkable neurite outgrowth”. For the same compound, the inhibition in vivo at 10 % in assay [1] was no less than 15%. Take `C[C@@H]1CNCCCN1S(=O)(=O)c1ccc2cnccc2c1` [Example 18, (R)-6-(2-methyl-1,4-diazepan-1-ylsulfonyl)isoquinoline dihydrochloride]: the inhibition in vivo at 10 % in assay [1] was no less than 15%. For the same compound, in the assay with rats (SD), the pulse rate result is “increased”. The “systolic blood pressure lowered compared with the value before administration” value in the assay on rats (SD) (maximum lowering) is no less than 30%.

Consider `CC1(C)CNCCCN1S(=O)(=O)c1ccc2cnccc2c1` [Example 22, 6-(2,2-dimethyl-1,4-diazepan-1-ylsulfonyl)isoquinoline dihydrochloride], for which the inhibition in vivo at 10 % in assay [1] is no less than 15%.

Regarding `C[C@@H]1CNCCCCN1S(=O)(=O)c1ccc2cnccc2c1Br` [Example 23, (R)-5-bromo-6-(2-methyl-1,4-diazocan-1-ylsulfonyl)isoquinoline dihydrochloride], the inhibition in vivo at 10 % in assay [1] was no less than 15%.

Consider `C[C@H]1CNCCCCN1S(=O)(=O)c1ccc2cnccc2c1` [Example 24, (S)-6-(2-methyl-1,4-diazocan-1-ylsulfonyl)isoquinoline dihydrochloride], for which the inhibition in vivo at 10 % in assay [1] was no less than 15%.

On to `C[C@@H]1CNCCCN1S(=O)(=O)c1cc2ccncc2cc1F` [Example 25, (R)-6-(2-methyl-1,4-diazepan-1-ylsulfonyl)-7-fluoroisoquinoline dihydrochloride], for which the inhibition in vivo at 10 % in assay [1] is no less than 15%. Still for that read-out and setting: to `O=S(=O)(c1ccc2cnccc2c1)N1CCCNC[C@H]1CF` [Example 26, (S)-6-(2-fluoromethyl-1,4-diazepan-1-ylsulfonyl)isoquinoline dihydrochloride] belongs no less than 15%; to `C[C@H]1CNCCCCCN1S(=O)(=O)c1ccc2cnccc2c1` [Example 28, (S)-6-(2-methyl-1,4-diazonan-1-ylsulfonyl)isoquinoline dihydrochloride], no less than 15%. In the case of `C[C@@H]1CNCCCN1S(=O)(=O)c1ccc2cnccc2c1Br` [Example 29, (R)-5-bromo-6-(2-methyl-1,4-diazepan-1-ylsulfonyl)isoquinoline dihydrochloride], the inhibition in vivo at 10 % in assay [1] is no less than 15%. With `C[C@@H]1CCN(S(=O)(=O)c2ccc3cnccc3c2)CCNC1` [Example 30, (R)-6-(6-methyl-1,4-diazocan-1-ylsulfonyl)isoquinoline dihydrochloride], in assay [1], the inhibition in vivo at 10 % was no less than 15%. Regarding `C[C@@H]1CCNCCN(S(=O)(=O)c2ccc3cnccc3c2)C1` [Example 31, (R)-6-(7-methyl-1,4-diazocan-1-ylsulfonyl)isoquinoline dihydrochloride], the inhibition in vivo at 10 % in assay [1] was no less than 15%. Turning to `C[C@H]1CCNCCN1S(=O)(=O)c1ccc2cnccc2c1` [Example 32, (S)-6-(7-methyl-1,4-diazepan-1-ylsulfonyl)isoquinoline dihydrochloride], in assay [2] (10 mg/kg), the pulse rate entry is given as “increased” and the “systolic blood pressure lowered compared with the value before administration” value stood at 16%. In assay [1], the inhibition in vivo at 10 % was no less than 15%. As for `C[C@@H]1CNCCCCCN1S(=O)(=O)c1ccc2cnccc2c1` [Example 33, (R)-6-(2-methyl-1,4-diazonan-1-ylsulfonyl)isoquinoline dihydrochloride], the inhibition in vivo at 10 % in assay [1] is no less than 15%.

For the compound `C[C@@H]1CCNCCN1S(=O)(=O)c1ccc2cnccc2c1` [Example 34, (R)-6-(7-methyl-1,4-diazepan-1-ylsulfonyl)isoquinoline dihydrochloride], the pulse rate entry in assay [2] (30 mg/kg) is listed as “increased”. Besides, the inhibition in vivo at 10 % in assay [1] was no less than 15%. In the case of `C[C@@H]1CCNC[C@@H](C)N1S(=O)(=O)c1ccc2cnccc2c1` [Example 35, (2R,7R)-6-(2,7-dimethyl-1,4-diazepan-1-ylsulfonyl)isoquinoline dihydrochloride], the pulse rate entry in assay [2] (10 mg/kg) is given as “increased”. Further, the inhibition in vivo at 10 % in assay [1] is no less than 15%. For the compound `C[C@@H]1CCNC[C@H](C)N1S(=O)(=O)c1ccc2cnccc2c1` [Example 36, (2S,7R)-6-(2,7-dimethyl-1,4-diazepan-1-ylsulfonyl)isoquinoline dihydrochloride], the inhibition in vivo at 10 % in assay [1] was no less than 15%. Consider `C[C@@H]1CCCNCCN1S(=O)(=O)c1ccc2cnccc2c1` [Example 37, (R)-6-(8-methyl-1,4-diazocan-1-ylsulfonyl)isoquinoline dihydrochloride], for which the inhibition in vivo at 10 % in assay [1] is no less than 15%.

For the compound `C[C@@H]1CCNCCCN1S(=O)(=O)c1ccc2cnccc2c1` [Example 38, (R)-6-(2-methyl-1,5-diazocan-1-ylsulfonyl)isoquinoline dihydrochloride], in assay [1], the inhibition in vivo at 10 % was no less than 15%. The same measure, in the same setting: the result for `C[C@@H]1CNCCCCN1S(=O)(=O)c1ccc2cnccc2c1[N+](=O)[O-]` [Example 39, (R)-6-(2-methyl-1,4-diazocan-1-ylsulfonyl)-5-nitroisoquinoline dihydrochloride] reads no less than 15%. On to `C[C@@H]1CNC[C@@H](C)N1S(=O)(=O)c1ccc2cnccc2c1` [Example 40, (2R,6R)-6-(2,6-dimethylpiperazin-1-ylsulfonyl)isoquinoline dihydrochloride], for which, in assay [1], the inhibition in vivo at 10 % is no less than 15%. In the case of `C[C@H]1CCNC[C@H](C)N1S(=O)(=O)c1ccc2cnccc2c1` [Example 41, (2S,7S)-6-(2,7-dimethyl-1,4-diazepan-1-ylsulfonyl)isoquinoline dihydrochloride], in assay [1], the inhibition in vivo at 10 % is no less than 15%. For `C[C@H]1CCNCCCN1S(=O)(=O)c1ccc2cnccc2c1` [Example 42, (S)-6-(2-methyl-1,5-diazocan-1-ylsulfonyl)isoquinoline dihydrochloride], the inhibition in vivo at 10 % in assay [1] is no less than 15%.

For the compound `C[C@@H]1CNCCOCCN1S(=O)(=O)c1ccc2cnccc2c1` [Example 43, (R)-6-(5-methyl-1,4,7-oxadiazonan-4-ylsulfonyl)isoquinoline dihydrochloride], in assay [1], the inhibition in vivo at 10 % was no less than 15%.

As to `C[C@@H]1CNCCNCCN1S(=O)(=O)c1ccc2cnccc2c1` [Example 44, (R)-6-(2-methyl-1,4,7-triazonan-1-ylsulfonyl)isoquinoline trihydrochloride], in assay [1], the inhibition in vivo at 10 % is no less than 15%. As for `NCC(=O)N1CCCN(S(=O)(=O)c2ccc3cnccc3c2)CC1` [Example 45, 6-(4-glycyl-1,4-diazepan-1-ylsulfonyl)isoquinoline dihydrochloride], the inhibition in vivo at 10 % in assay [1] is 5 to 15%. As for `C[C@@H]1CN(C(=O)CN)CCCCN1S(=O)(=O)c1ccc2cnccc2c1` [Example 47, (R)-6-(4-glycyl-2-methyl-1,4-diazocan-1-ylsulfonyl)isoquinoline dihydrochloride], the inhibition in vivo at 10 % in assay [1] lay within 5 to 15%.

As to `CNCC(=O)N1CCCCN(S(=O)(=O)c2ccc3cnccc3c2)[C@H](C)C1` [Example 48, (R)-6-(4-sarcosyl-2-methyl-1,4-diazocan-1-ylsulfonyl)isoquinoline dihydrochloride], the inhibition in vivo at 10 % in assay [1] fell in the range of 5 to 15%. Regarding `Cc1c(S(=O)(=O)N2CCCNC[C@@H]2C)ccc2cnccc12` [Example 49, (S)-5-methyl-6-(2-methyl-1,4-diazepan-1-ylsulfonyl)isoquinoline], the “degree of neurite outgrowth” value in the assay with NG108-15 cells is listed as “remarkable neurite outgrowth”. Moreover, in assay [1], the inhibition in vivo at 10 % is no less than 15%. Turning to `C[C@@H]1CCNCCN1S(=O)(=O)c1ccc2c(SCCN)nccc2c1` [Example 51, (R)-1-(2-aminoethylthio)-6-(7-methyl-1,4-diazepan-1-ylsulfonyl)isoquinoline trihydrochloride], the inhibition in vivo at 2 % in assay [3] is no less than 15%. `C[C@@H]1CNCCCCN1S(=O)(=O)c1ccc2c(SCCN)nccc2c1` [Example 52, (R)-1-(2-aminoethylthio)-6-(2-methyl-1,4-diazocan-1-ylsulfonyl)isoquinoline trihydrochloride]: in assay [3], the inhibition in vivo at 2 % is no less than 15%.
